This note sets out measurements from paper PMC6271425, “Synthesis and Sar Study of Diarylpentanoid Analogues as New Anti-Inflammatory Agents” (Molecules, 2014).

Entries after “also recorded” stand apart in the source; their conditions may differ.

The subject of one data set is NO production in IFN-γ/LPS-stimulated RAW 264.7 macrophages. As to the kind of experiment: NO suppression (Griess nitrite determination) in IFN-γ/LPS-stimulated RAW 264.7 macrophages. In kind it is cell-based, murine. Conditions: 50 µM test concentration; IFN-γ/LPS-stimulated RAW 264.7 cells; 50 µM. How it is done:
The synthesized compounds were screened for NO suppression activity in IFN-γ/LPS-stimulated RAW 264.7 macrophages at a 50 µM test concentration. […] The IC50 values of the fifty-seven bioactive compounds were determined and compared to that of the positive control, curcumin. An MTT assay was also carried out to confirm that NO inhibition was not due to cytotoxicity. […] The complete bioassay results of all the compounds are provided as Table S2 in Supplementary Data. RAW 264.7 murine macrophages cells obtained from American Type Culture Collection (ATCC, Rockville, MD, USA) were grown in Dulbecco’s Modified Eagle’s Medium (DMEM) containing 10% fetal bovine serum (FBS) and 1% penicillin/streptomycin in a 95% air and 5% CO2 atmosphere at 37 °C. RAW 264.7 cells at 90%–95% confluency were detached and seeded (50,000 cells/well) into a 96-well culture plate with 50 μL of DMEM and incubated for 24 h. The cells were then stimulated in […] of LPS (Escherichia coli, serotype 0111:B4) and 1 ng/ml of interferon-gamma (IFN-γ) in the presence or absence of test compounds for 17 h. Nitrite concentration was then determined by Griess assay by reacting 50 μL of cell culture supernatant with 50 μL of Griess reagent (1% sulfanilamide and 0.1% N-(1-naphthyl)ethylenediamine dihydrochloride in 2.5% phosphoric acid) at room temperature. The optical density was measured at 550 nm after 5 min of incubation at room temperature with a microplate reader.
In general terms: The Griess reaction detects nitrite, a stable product of nitric oxide.
As for `O=C(/C=C(O)/C=C/c1ccc(O)cc1)c1ccccc1O` [Compound 81], the “NO Inhibition at 50 µM (%) ± S.E.M” value is 91.5 ± 3.9%.
The same measure, in the same setting: for `O=C(/C=C(O)/C=C/c1cccc(O)c1)c1cc(Cl)ccc1O` [Compound 85] the value was 95.9 ± 0.5%; for `O=C(/C=C(O)/C=C/c1ccc(O)cc1)c1cc(Cl)ccc1O` [Compound 86], 90.3 ± 2.7%; for `O=C(/C=C(O)/C=C/c1cc(O)ccc1O)c1cc(Cl)ccc1O` [Compound 87], 96.5 ± 1.4%.
Still for that read-out and setting: for `O=C(/C=C(O)/C=C/c1ccc(O)c(O)c1)c1cc(Cl)ccc1O` [Compound 88] the value was 99.7 ± 1.2%; for `O=C(/C=C(O)/C=C/c1ccccc1O)c1cc(O)ccc1O` [Compound 89], 83.6 ± 2.0%.

The data set is the same for the next values; noted with them: IFN-γ/LPS-stimulated RAW 264.7 cells; read-out: NO Inhibition IC50 (µM) ± S.E.M.
For the compound `O=C(/C=C(O)/C=C/c1ccc(O)cc1)c1ccccc1O` [Compound 81], the IC50 is less than 20 µM.
The same measure, in the same setting: next, `O=C(/C=C(O)/C=C/c1ccc(O)cc1)c1cc(Cl)ccc1O` [Compound 86]: less than 20 µM.

Staying with this data set, now noted: Mus musculus, RAW264.7, 50 µM test concentration; IFN-γ/LPS-stimulated RAW 264.7 cells; read-out: NO Inhibition at 50 µM (%) ± S.E.M.
Turning to `O=C(/C=C(O)/C=C/c1ccc(O)cc1)c1ccccc1O` [Compound 81], the inhibition (usually the share of the control response that was lost under treatment) at 50 µM stood at 91.5 ± 3.86%.
Still for that read-out and setting: next, `O=C(/C=C(O)/C=C/c1cccc(O)c1)c1cc(Cl)ccc1O` [Compound 85]: 95.86 ± 0.45%.
With `O=C(/C=C(O)/C=C/c1ccc(O)cc1)c1cc(Cl)ccc1O` [Compound 86], the inhibition at 50 µM is 90.3 ± 2.66%.
Still for that read-out and setting: next, `O=C(/C=C(O)/C=C/c1cc(O)ccc1O)c1cc(Cl)ccc1O` [Compound 87]: 96.5 ± 1.42%.
Same read-out and setting: for `O=C(/C=C(O)/C=C/c1ccc(O)c(O)c1)c1cc(Cl)ccc1O` [Compound 88] the value was 99.7 ± 1.15%; for `O=C(/C=C(O)/C=C/c1ccccc1O)c1cc(O)ccc1O` [Compound 89], 83.6 ± 2%.

Staying with this data set, now noted: Mus musculus, RAW264.7, IFN-γ/LPS-stimulated RAW 264.7 cells; read-out: NO Inhibition IC50 (µM) ± S.E.M.
Take `O=C(/C=C(O)/C=C/c1ccc(O)cc1)c1ccccc1O` [Compound 81]: the IC50 was 19.1 ± 0.644 µM.
Consider `O=C(/C=C(O)/C=C/c1cccc(O)c1)c1cc(Cl)ccc1O` [Compound 85], for which the IC50 was 26.9 ± 0.796 µM.
The same measure, in the same setting: next, `O=C(/C=C(O)/C=C/c1ccc(O)cc1)c1cc(Cl)ccc1O` [Compound 86]: 18.7 ± 0.786 µM; `O=C(/C=C(O)/C=C/c1cc(O)ccc1O)c1cc(Cl)ccc1O` [Compound 87]: 32.3 ± 0.865 µM.
On the same count and under the same terms, for `O=C(/C=C(O)/C=C/c1ccc(O)c(O)c1)c1cc(Cl)ccc1O` [Compound 88] the value was 4.89 ± 0.312 µM; for `O=C(/C=C(O)/C=C/c1ccccc1O)c1cc(O)ccc1O` [Compound 89], 31 ± 2 µM.

Still in this data set, the particulars now being: Mus musculus, RAW264.7, Table 6, NO suppression IC50 used for QSAR; unit inferred; read-out: IC50.
Regarding `O=C(/C=C(O)/C=C/c1ccc(O)cc1)c1ccccc1O` [Compound 81], the IC50 worked out at 19.1 ± 0.6 µM.
Consider `O=C(/C=C(O)/C=C/c1cccc(O)c1)c1cc(Cl)ccc1O` [Compound 85], for which the IC50 worked out at 26.9 ± 0.8 µM.
Still for that read-out and setting: next, `O=C(/C=C(O)/C=C/c1ccc(O)cc1)c1cc(Cl)ccc1O` [Compound 86]: 18.7 ± 0.8 µM.
For the compound `O=C(/C=C(O)/C=C/c1cc(O)ccc1O)c1cc(Cl)ccc1O` [Compound 87], the IC50 was 32.3 ± 0.9 µM.
Still for that read-out and setting: for `O=C(/C=C(O)/C=C/c1ccc(O)c(O)c1)c1cc(Cl)ccc1O` [Compound 88] the value was 4.9 ± 0.3 µM.

The data set is the same for the next values; noted with them: Mus musculus, RAW264.7, −log IC50 of NO suppression; read-out: pIC50 (converted).
For `O=C(/C=C(O)/C=C/c1ccc(O)cc1)c1ccccc1O` [Compound 81], the IC50 was 19.1 µM.
For the compound `O=C(/C=C(O)/C=C/c1cccc(O)c1)c1cc(Cl)ccc1O` [Compound 85], the IC50 is 26.9 µM.
The same measure, in the same setting: next, `O=C(/C=C(O)/C=C/c1ccc(O)cc1)c1cc(Cl)ccc1O` [Compound 86]: 18.6 µM.
Same read-out and setting: for `O=C(/C=C(O)/C=C/c1cc(O)ccc1O)c1cc(Cl)ccc1O` [Compound 87] the value was 32.4 µM; for `O=C(/C=C(O)/C=C/c1ccc(O)c(O)c1)c1cc(Cl)ccc1O` [Compound 88], 4.9 µM.
The same measure, in the same setting: next, `O=C(/C=C(O)/C=C/c1ccccc1O)c1cc(O)ccc1O` [Compound 89]: 30.9 µM.

Tested on in a further data set: not listed separately
As to the kind of experiment: Cell cytotoxicity determination (MTT assay). Format: cell-based, murine. Conditions: mouse, RAW 264.7 macrophage cells, RAW 264.7 cells, read-out: Cytotoxicity IC50 (µM) ± S.E.M. How it is done: (§1) The synthesized compounds were screened for NO suppression activity in IFN-γ/LPS-stimulated RAW 264.7 macrophages at a 50 µM test concentration. […] The IC50 values of the fifty-seven bioactive compounds were determined and compared to that of the positive control, curcumin. An MTT assay was also carried out to confirm that NO inhibition was not due to cytotoxicity. […] The complete bioassay results of all the compounds are provided as Table S2 in Supplementary Data.
(§2) RAW 264.7 murine macrophages cells obtained from American Type Culture Collection (ATCC, Rockville, MD, USA) were grown in Dulbecco’s Modified Eagle’s Medium (DMEM) containing 10% fetal bovine serum (FBS) and 1% penicillin/streptomycin in a 95% air and 5% CO2 atmosphere at 37 °C.
(§3) Supernatant in each well was removed followed by addition of 100 µL DMEM. Subsequently, 20 µL of 3-(4,5-dimethylthiazol-2-yl)-2,5-diphenyltetrazolium bromide (MTT, 5 mg/mL) was then added and the plate was incubated in a 95% air and 5% CO2 atmosphere at 37 °C for 4 h. The mixture of culture media and MTT in all wells were removed and the purplish formazan crystals formed were dissolved in dimethyl sulfoxide (DMSO) and further incubated for 15 min at room temperature. The color intensity was then measured at 570 nm at room temperature.
A general note: Formazan colour is commonly taken as a measure of viable cells.
As for `O=C(/C=C(O)/C=C/c1ccc(O)cc1)c1ccccc1O` [Compound 81], the IC50 was found to be 94.13 ± 0.917 µM.
`O=C(/C=C(O)/C=C/c1cccc(O)c1)c1cc(Cl)ccc1O` [Compound 85]: the IC50 was 53.1 ± 0.973 µM.
As to `O=C(/C=C(O)/C=C/c1ccc(O)cc1)c1cc(Cl)ccc1O` [Compound 86], the IC50 is 89.1 ± 1.08 µM.
Same read-out and setting: next, `O=C(/C=C(O)/C=C/c1cc(O)ccc1O)c1cc(Cl)ccc1O` [Compound 87]: 66 ± 1.21 µM.
Turning to `O=C(/C=C(O)/C=C/c1ccc(O)c(O)c1)c1cc(Cl)ccc1O` [Compound 88], the IC50 worked out at 56.4 ± 1.19 µM.
On the same count and under the same terms, for `O=C(/C=C(O)/C=C/c1ccccc1O)c1cc(O)ccc1O` [Compound 89] the value was 67.3 ± 0.552 µM.

A further data set relates to RAW 264.7 cells. Put plainly: Cell cytotoxicity determination (MTT assay). In kind it is cell-based, murine. As to conditions: read-out: Cytotoxicity IC50 (µM) ± S.E.M. The method, then: as §1, §2, §3
As for `O=C(/C=C(O)/C=C/c1ccc(O)cc1)c1ccccc1O` [Compound 81], the IC50 was more than 100 µM.
For the compound `O=C(/C=C(O)/C=C/c1cccc(O)c1)c1cc(Cl)ccc1O` [Compound 85], the IC50 was determined as 89.1 ± 1.1 µM.
Still for that read-out and setting: next, `O=C(/C=C(O)/C=C/c1ccc(O)cc1)c1cc(Cl)ccc1O` [Compound 86]: 66 ± 1.2 µM; `O=C(/C=C(O)/C=C/c1cc(O)ccc1O)c1cc(Cl)ccc1O` [Compound 87]: 49.5 ± 1.7 µM; `O=C(/C=C(O)/C=C/c1ccc(O)c(O)c1)c1cc(Cl)ccc1O` [Compound 88]: 40.9 ± 1.6 µM.
For `O=C(/C=C(O)/C=C/c1ccccc1O)c1cc(O)ccc1O` [Compound 89], the IC50 was found to be 72.6 ± 2.6 µM.

Tested on in another data set: not listed separately
Put plainly: Chemical stability test (UV-visible spectra in phosphate buffer pH 7.4). Format: physicochemical. As to conditions: 20 μM in phosphate buffer pH 7.4, 1% DMSO, 30 min at 5-min intervals, 25 °C. The method, then: Poor chemical stability of curcumin has been proven as one of the important factors, which cause its low bioavailability. Therefore, in the present study, we further tested the two best compounds (88 and 97) for their chemical stability at physiological pH and compared it to that of curcumin used as reference. The test was carried out by observing the ultraviolet spectral changes of the targeted compounds for 30 minutes with 5-minutes intervals in phosphate buffer (pH 7.4). Figure 8, Figure 9 and Figure 10 depict the ultraviolet changes of curcumin, compound 88 and compound 97, respectively.
Absorbance readings were taken from 300–600 nm using a SpectraMax Plus 384 (Molecular Devices LLC, Sunnyvale, CA, USA). A stock solution of 50 mM curcumin or active compounds 88 and 97 were prepared and diluted by phosphate buffer (pH 7.4), containing 1% dimethyl sulfoxide (DMSO), to a final concentration of 20 μM. The ultraviolet absorption spectra were collected for over 30 min at 5-min intervals at 25 °C. All spectral measurements were carried out in a 1 cm path-length quartz cuvette.
As for `O=C(/C=C(O)/C=C/c1ccc(O)c(O)c1)c1cc(Cl)ccc1O` [Compound 88], the “Chemical stability (ultraviolet spectral changes)” value was “excellent chemical stability; also recorded: no significant changes”.
